Experimental data taken from BigSolDB 2.1.

CN1c2ccccc2C(=O)N2CCc3c([nH]c4ccccc34)[C@H]21
solubility (mole fraction)
Conditions	283.15 K	288.15 K	293.15 K	298.15 K	303.15 K	308.15 K	313.15 K	318.15 K	323.15 K
in acetone	0.000192	0.000226	0.000267	0.000315	0.000364	0.000426	0.000491	0.000571	0.000651
in ethanol	5.94e-05	7.31e-05	8.95e-05	0.00011	0.000132	0.000157	0.000186	0.000222	0.000263
in isopropanol	6.79e-05	8.16e-05	9.91e-05	0.000121	0.000142	0.00017	0.0002	0.000237	0.000276
in methanol	3.43e-05	4.34e-05	5.4e-05	6.72e-05	8.31e-05	0.000102	0.000124	0.000149	0.000182
